Experimental data: patent EP4268810A1 (priority 2022, dated 2023)
Where two headings read alike, the source gives them in different places.

Key:
[1] = tested on: SARS-CoV-2 clinical omicron isolate
[2] = tested on: SARS-CoV-2 clinical omicron isolate; test: microbe, parasite or virus in culture; settings: Severe acute respiratory syndrome coronavirus 2, Calu-3

Row | SMILES | Therapeutic range: CC50/IC50, CTG ([1]; SARS-CoV-2 omicron in Calu-3 cells, CC50 by CTG) | Therapeutic range: CC50/IC50, IncuCyte ([1]; SARS-CoV-2 omicron in Calu-3 cells, CC50 by IncuCyte) | Therapeutic range: CC50/IC50, MTT ([1]; SARS-CoV-2 omicron in Calu-3 cells, CC50 by MTT) | IC50 [2] | Therapeutic range: CC50/IC50, CTG ([1]; human, calu-3 cells) | Therapeutic range: CC50/IC50, IncuCyte ([1]; human, calu-3 cells) | Therapeutic range: CC50/IC50, MTT ([1]; human, calu-3 cells)
1 | COc1[nH]c(=O)c(C(=O)C(C)CC(C)C(Cl)CCl)c(O)c1OC (centres unmarked) [Atpenin A5] | CTG: 1.3 | IncuCyte: > 117.6 | MTT: 1.8 | 0.68 µM | – | – | –
2 | [H]/N=C(/N)N/C(=N/[H])NCCc1ccccc1 [Phenformin, phenformin] | – | – | – | 1.35 µM | CTG: 1674 | IncuCyte: 1111 | MTT: 1123
